Test results published in ChEMBL document CHEMBL5465560, “Selectivity Literature for EUbOPEN Chemogenomic Library” (2024).

Assays:
[1] = target: Serine/threonine-protein kinase OSR1 (Homo sapiens) (UniProt O95747); experiment: Selectivity interaction (KinomeScan (DiscoverX)) EUB0001049a OXSR1; conditions: at 1 µM
[2] = target: Cyclin-dependent kinase 2 (Homo sapiens, UniProt P24941); experiment: Selectivity interaction (ActivX KiNativ screen (kinase selectivity in THP-1 cell lysates)) EUB0000639a CDK2; assay type: subcellular; conditions: lysate, at 0.01 µM
Aurora kinase B = Aurora kinase B (Homo sapiens, UniProt Q96GD4); experiment: Selectivity interaction (ActivX KiNativ screen (kinase selectivity in THP-1 cell lysates)) EUB0000639a AURKB; assay type: subcellular; conditions: lysate, at 1 µM
[3] = target: T1, Serine/threonine-protein kinase Sgk1 (Homo sapiens) (UniProt O00141); experiment: Selectivity interaction (Kinase panel (literature)) EUB0001199aCl SGK1; conditions: at 1 µM
T1 sequence (whole entry): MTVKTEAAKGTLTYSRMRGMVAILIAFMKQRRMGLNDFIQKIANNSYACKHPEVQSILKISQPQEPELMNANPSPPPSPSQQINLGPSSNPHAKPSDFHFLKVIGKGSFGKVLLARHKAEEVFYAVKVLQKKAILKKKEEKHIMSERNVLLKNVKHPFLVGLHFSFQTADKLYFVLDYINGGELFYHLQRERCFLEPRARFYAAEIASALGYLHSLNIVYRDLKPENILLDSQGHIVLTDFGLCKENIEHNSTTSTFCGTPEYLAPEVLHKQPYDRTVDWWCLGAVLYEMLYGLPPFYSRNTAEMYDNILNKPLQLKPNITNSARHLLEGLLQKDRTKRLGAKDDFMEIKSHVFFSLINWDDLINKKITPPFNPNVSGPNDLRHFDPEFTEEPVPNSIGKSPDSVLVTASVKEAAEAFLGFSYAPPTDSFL

[4] = target: MAP kinase-interacting serine/threonine-protein kinase 2 (Homo sapiens, UniProt Q9HBH9); experiment: Selectivity interaction (KinomeScan (DiscoverX)) EUB0001079a MKNK2; conditions: at 1 µM
[5] = target: Ribosomal protein S6 kinase alpha-2 (Homo sapiens) (UniProt Q15349); experiment: Selectivity interaction (KinomeScan (DiscoverX)) EUB0000045b RPS6KA2; conditions: at 1 µM
[6] = target: T2, Serine/threonine-protein kinase DCLK2 (Homo sapiens) (UniProt Q8N568); experiment: Selectivity interaction (KinomeScan (DiscoverX)) EUB0000655a DCLK2; conditions: at 10 µM
T2 sequence (whole entry): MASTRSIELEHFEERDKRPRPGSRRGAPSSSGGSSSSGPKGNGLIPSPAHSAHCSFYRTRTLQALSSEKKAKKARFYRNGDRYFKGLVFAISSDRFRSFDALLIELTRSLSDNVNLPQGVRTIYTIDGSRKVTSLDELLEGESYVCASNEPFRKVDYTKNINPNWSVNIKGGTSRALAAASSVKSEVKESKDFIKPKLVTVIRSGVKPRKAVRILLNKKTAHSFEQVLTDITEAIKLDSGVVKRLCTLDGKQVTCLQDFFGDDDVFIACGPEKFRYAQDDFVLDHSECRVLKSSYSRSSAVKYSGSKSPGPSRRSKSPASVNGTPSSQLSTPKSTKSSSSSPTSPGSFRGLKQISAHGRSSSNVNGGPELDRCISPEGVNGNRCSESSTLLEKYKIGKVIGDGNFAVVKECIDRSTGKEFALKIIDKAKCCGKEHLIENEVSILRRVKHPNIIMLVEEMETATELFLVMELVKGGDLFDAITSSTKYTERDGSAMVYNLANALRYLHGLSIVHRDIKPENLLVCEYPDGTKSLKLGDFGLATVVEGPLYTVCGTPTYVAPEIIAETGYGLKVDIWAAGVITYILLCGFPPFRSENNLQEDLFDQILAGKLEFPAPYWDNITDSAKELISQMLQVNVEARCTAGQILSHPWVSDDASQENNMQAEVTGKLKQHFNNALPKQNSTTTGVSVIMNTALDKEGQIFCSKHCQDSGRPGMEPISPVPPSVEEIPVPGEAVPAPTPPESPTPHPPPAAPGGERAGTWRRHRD

[7] = target: Tyrosine-protein kinase ABL1 (Homo sapiens, UniProt P00519); experiment: Selectivity interaction (ActivX KiNativ screen (ex vivo kinase selectivity in human PBMCs)) EUB0001619a ABL1; assay type: cell-based; conditions: PBMC, at 1 µM
Chain of Tyrosine-protein kinase ABL1 (P00519 whole entry): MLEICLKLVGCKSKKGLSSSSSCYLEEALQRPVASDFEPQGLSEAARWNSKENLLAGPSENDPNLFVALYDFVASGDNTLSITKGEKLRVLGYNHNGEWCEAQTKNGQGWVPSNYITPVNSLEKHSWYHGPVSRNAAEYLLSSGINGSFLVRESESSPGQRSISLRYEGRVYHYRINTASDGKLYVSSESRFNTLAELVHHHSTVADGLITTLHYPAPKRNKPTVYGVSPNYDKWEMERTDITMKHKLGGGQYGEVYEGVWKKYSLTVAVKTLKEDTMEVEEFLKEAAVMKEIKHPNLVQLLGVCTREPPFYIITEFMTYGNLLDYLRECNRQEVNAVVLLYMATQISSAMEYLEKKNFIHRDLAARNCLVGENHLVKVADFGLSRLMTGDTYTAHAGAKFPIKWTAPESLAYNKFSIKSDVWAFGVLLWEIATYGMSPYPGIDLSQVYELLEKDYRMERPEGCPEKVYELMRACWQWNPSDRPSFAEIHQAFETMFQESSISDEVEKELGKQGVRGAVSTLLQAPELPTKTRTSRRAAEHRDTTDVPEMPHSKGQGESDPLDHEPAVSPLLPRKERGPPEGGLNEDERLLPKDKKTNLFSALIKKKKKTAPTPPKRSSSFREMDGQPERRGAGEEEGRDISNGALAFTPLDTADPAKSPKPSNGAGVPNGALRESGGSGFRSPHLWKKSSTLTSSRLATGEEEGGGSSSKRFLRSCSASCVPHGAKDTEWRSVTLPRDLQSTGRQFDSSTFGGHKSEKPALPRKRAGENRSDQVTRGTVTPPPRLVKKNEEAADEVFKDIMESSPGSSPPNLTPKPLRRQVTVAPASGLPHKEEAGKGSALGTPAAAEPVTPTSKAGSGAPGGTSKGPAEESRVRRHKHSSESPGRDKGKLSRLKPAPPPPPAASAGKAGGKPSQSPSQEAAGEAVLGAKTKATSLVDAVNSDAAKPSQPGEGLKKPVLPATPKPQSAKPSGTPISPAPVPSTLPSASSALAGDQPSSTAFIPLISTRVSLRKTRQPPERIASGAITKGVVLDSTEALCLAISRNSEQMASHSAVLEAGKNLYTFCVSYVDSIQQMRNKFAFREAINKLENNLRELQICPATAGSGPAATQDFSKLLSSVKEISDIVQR

[8] = target: Atypical kinase COQ8A, mitochondrial (Homo sapiens, UniProt Q8NI60); experiment: Selectivity interaction (KinomeScan (DiscoverX)) EUB0000607a ADCK3; conditions: at 10 µM
[9] = target: T3, Interleukin-1 receptor-associated kinase 4 (Homo sapiens) (UniProt Q9NWZ3); experiment: Selectivity interaction (SelectScreen profiling (Invitrogen)) EUB0000607a IRAK4; conditions: at 2 µM
T3 sequence (whole entry): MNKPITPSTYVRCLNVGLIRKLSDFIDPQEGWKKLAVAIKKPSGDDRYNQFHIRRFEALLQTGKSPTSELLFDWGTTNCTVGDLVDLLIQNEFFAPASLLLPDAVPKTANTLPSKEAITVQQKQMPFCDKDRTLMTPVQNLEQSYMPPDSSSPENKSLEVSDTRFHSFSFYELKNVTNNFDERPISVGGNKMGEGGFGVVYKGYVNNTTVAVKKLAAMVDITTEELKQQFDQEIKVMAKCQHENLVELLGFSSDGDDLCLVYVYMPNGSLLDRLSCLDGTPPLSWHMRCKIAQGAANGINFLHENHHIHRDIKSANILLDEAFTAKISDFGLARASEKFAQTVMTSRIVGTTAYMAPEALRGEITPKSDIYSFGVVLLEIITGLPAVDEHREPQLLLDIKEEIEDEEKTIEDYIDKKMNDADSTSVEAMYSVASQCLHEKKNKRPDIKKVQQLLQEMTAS

[10] = target: Histone-lysine N-methyltransferase 2A (Homo sapiens) (UniProt Q03164); experiment: Selectivity interaction (Methyltransferase screen (Scintillation proximity assays)) EUB0000255b MLL
Chain of Histone-lysine N-methyltransferase 2A (Homo sapiens) (Q03164 1-2718 limits assumed): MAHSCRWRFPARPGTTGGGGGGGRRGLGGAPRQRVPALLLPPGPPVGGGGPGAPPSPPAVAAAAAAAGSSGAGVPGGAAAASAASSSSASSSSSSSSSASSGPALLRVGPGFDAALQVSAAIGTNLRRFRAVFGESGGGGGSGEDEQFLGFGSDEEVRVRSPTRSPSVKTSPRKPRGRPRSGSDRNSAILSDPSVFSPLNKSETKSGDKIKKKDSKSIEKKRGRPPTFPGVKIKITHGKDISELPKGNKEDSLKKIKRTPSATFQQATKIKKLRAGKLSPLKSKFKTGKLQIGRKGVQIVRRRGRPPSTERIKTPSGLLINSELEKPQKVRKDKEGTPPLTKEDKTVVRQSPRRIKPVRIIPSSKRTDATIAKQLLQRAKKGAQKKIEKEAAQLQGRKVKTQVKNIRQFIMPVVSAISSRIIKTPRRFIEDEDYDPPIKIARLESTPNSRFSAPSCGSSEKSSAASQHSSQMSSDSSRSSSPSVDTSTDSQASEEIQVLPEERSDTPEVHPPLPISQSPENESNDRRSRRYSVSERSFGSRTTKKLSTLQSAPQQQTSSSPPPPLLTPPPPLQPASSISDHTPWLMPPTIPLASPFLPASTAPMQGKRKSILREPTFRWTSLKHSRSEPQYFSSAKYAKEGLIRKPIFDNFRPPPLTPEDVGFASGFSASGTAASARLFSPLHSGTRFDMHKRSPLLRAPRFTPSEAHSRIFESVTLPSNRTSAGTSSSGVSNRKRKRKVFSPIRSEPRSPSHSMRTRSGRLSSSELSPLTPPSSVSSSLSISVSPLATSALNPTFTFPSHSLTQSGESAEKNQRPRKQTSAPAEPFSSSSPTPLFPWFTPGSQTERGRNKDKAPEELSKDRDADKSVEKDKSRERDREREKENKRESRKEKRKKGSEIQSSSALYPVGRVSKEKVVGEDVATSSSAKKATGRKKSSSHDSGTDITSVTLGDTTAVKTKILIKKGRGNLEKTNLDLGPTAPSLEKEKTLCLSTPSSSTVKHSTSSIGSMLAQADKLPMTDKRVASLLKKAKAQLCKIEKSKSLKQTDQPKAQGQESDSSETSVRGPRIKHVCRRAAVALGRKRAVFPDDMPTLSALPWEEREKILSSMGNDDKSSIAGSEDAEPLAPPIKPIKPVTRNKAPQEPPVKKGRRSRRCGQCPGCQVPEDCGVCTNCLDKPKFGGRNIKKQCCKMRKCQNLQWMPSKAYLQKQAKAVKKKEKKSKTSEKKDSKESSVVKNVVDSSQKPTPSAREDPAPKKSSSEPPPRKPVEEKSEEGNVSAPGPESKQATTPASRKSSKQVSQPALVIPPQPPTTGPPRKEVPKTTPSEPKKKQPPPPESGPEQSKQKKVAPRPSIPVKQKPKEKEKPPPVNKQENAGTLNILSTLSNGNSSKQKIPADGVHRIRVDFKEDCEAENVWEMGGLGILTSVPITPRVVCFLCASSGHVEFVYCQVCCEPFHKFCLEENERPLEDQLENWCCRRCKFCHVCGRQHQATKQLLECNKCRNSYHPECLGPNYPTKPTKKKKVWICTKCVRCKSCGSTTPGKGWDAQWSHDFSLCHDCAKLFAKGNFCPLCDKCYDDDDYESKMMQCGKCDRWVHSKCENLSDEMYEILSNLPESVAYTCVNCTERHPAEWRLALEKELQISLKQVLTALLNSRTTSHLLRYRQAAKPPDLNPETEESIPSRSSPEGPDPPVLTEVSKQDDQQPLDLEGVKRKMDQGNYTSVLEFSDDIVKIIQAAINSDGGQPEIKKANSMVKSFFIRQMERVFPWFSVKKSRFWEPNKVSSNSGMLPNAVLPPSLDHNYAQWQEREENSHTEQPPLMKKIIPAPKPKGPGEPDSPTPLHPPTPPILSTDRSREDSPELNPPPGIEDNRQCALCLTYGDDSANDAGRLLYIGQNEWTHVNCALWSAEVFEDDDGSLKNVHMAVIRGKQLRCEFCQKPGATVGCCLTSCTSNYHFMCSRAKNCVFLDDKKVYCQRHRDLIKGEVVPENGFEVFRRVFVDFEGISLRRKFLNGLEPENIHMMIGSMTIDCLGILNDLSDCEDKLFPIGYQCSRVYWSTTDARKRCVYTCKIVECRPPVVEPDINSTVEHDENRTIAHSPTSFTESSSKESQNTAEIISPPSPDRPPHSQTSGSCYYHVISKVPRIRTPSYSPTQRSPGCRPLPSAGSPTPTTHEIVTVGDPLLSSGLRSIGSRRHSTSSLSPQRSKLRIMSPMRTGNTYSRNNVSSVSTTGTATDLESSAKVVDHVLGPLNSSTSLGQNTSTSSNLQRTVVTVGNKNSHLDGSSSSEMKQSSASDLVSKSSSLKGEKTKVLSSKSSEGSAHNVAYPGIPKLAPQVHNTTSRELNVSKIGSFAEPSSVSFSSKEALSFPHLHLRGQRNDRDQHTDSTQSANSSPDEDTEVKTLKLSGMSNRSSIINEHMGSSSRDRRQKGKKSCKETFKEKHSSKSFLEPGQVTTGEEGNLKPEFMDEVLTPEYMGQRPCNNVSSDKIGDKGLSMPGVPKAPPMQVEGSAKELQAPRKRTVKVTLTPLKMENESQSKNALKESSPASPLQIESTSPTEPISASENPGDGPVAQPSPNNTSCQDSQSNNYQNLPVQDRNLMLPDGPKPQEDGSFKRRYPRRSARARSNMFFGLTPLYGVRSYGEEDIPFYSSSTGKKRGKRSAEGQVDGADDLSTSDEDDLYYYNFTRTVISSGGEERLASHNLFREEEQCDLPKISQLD
Chain of Histone-lysine N-methyltransferase 2A (Homo sapiens) (Q03164 2719-3969 limits assumed): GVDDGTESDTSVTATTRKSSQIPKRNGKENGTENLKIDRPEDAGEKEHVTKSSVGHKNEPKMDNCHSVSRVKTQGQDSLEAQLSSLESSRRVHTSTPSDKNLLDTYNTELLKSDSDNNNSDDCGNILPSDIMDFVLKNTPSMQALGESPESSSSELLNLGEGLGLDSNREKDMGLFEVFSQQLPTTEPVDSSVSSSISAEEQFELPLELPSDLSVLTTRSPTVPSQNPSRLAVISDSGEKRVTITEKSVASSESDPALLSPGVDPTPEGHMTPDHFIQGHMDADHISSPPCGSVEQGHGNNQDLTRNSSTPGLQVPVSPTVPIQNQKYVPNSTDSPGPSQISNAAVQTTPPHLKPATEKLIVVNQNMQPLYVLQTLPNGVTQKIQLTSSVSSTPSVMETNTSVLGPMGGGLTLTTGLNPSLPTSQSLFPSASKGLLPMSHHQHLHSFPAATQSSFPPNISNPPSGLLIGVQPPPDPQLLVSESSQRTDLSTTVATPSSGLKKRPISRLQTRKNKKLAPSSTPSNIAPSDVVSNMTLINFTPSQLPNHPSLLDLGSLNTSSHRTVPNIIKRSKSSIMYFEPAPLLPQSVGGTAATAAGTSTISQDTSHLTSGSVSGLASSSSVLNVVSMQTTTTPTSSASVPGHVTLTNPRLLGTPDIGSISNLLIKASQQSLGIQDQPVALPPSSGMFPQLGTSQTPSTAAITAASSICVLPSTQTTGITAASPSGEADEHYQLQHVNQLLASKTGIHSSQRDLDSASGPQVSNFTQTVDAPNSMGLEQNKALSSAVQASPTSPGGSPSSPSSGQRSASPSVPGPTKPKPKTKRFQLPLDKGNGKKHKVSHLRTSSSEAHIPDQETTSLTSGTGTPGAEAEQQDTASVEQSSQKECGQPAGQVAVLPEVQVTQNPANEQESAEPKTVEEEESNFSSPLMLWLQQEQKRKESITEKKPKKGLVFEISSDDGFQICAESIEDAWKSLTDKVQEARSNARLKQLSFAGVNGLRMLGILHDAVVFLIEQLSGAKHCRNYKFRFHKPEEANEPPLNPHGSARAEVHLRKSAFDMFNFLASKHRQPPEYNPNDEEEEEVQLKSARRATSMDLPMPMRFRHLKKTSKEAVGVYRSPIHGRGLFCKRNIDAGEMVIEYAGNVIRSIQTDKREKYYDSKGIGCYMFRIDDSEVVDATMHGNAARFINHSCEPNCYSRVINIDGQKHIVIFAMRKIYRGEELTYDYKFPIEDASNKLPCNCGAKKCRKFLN

[11] = target: Bone morphogenetic protein receptor type-1B (Homo sapiens, UniProt O00238); experiment: Selectivity interaction (KinomeScan (DiscoverX)) EUB0000666a BMPR1B; conditions: at 10 µM

COc1cc(Nc2nc(C)cc(-c3cnn4nc(OC)ccc34)n2)cc(C(F)(F)F)c1
% of control [1]: 83%

CC[C@@H]1[C@H](F)C(=O)N[C@@H]1COc1nccc2cc(C(N)=O)c(OC)cc12 [ZIMLOVISERTIB]
% of inhibition [2]: 0.3% | % of inhibition (Aurora kinase B): 20%

CN1Cc2nccc(-c3cn(C)nc3-c3ccc(F)cc3)c2C1=O
% of inhibition [3]: 2%

Nc1cnc(N2CCc3cc(S(=O)(=O)Nc4c(F)cc(Cl)cc4F)cc(N4CCCC4=O)c32)nc1 [TP-020n]
% of control [4]: 100%

C=CC(=O)Nc1cc(-n2c(=O)ccc3cnc4ccc(-c5ccc(NS(C)(=O)=O)cc5)cc4c32)ccc1C
% of control [5]: 90%

CN(C)CCOc1ccc(-c2nc(-c3ccncc3)c(-c3ccc4c(c3)CC/C4=N\O)[nH]2)cc1
% of control [6]: 100%

N#Cc1cccc(-c2c[nH]c3ncnc(N4CCOCC4)c23)c1
% of inhibition [7]: -53%

CNC(=O)Nc1ccc(-c2nc(N3CC4CCC(C3)O4)c3cnn(C4CCC5(CC4)OCCO5)c3n2)cc1
% of control [8]: 86% | % of inhibition [9]: 3%

COCCN1CCC(c2cc(CN(C)C(=O)c3cccc(Oc4ccccc4)c3)ccn2)CC1
% activity ([10]; at 1 µM): > 95% | % activity ([10]; at 10 µM): > 90%

O=C(NOC[C@H](O)CO)c1ccc(F)c(F)c1Nc1ccc(I)cc1F
% of control [11]: 100%
